Measured values from US20040162467A1, “Non-invasive transudate extraction” (priority 2001, published 2004).
“And” between values parts separate entries of the source, which are not always exact repeats. Identical values can stand only once.

Columns and labels:
[1] = Serum, transdermal and saliva samples from sheep before, during and after exercise; settings: for Saliva: 20-min saliva lag; for Exudate: transdermal
Procedure: (§1) Sodium lauryl sulfate (40%) and either a commercial ultrasound conductive gel (Aquasonic, Parker Lab., NJ 07004, USA) or a 10% ethanol gel (the two gels were alternated in use) are employed. These gels are designated SLS-UG and SLS-EG respectively herein. Collected SLS-UG and SLS-EG are assayed as for blood. Saliva was divided into two samples. The first sample is stored at −20° C. and assayed as for blood. The second sample is assayed at the time of experimentation using the apparatus and immunosensors described above.
(§2) Student t tests, ANOVA or Wilcoxon test for paired samples are made as appropriate. Statistical significance is taken at P≦0.05 level. For analysis across the exercise stress, data is grouped into pre, during and post exercise values as actual sample times relative to the exercise for transdermal and blood obtained values. For pre, during and post exercise grouping of saliva samples, a 20-min lag was allowed relative to blood and transdermal values in sheep and a 30-min lag in human subjects.
In the remaining 10 sheep, experimentation took place on three separate days, each 3 days apart. On days of experimentation, animals were penned as above and the jugular vein of the animal was catheterised. Animals were left to rest for 50 min and then a single ultrasound application applied for 1 min as above. […] A series of electrosonophoresis collections were made concurrently with blood collection from the jugular vein, every 5 min for a further 1 h. Saliva samples were collected on every second blood sample (i.e. every 10 min). At completion of this time, a human shepherd, intermittently for 30 min, then ran the animals around a paddock. During this 30 min, each animal was briefly restrained manually and sampled on all three parameters every 10 min (i.e. three samples repeated three times). At the end of this period, animals were repenned and rested for 10 min, and a further saliva collection was made. Following this saliva collection for a further 1-h period, collection as above, prior to exercise, was repeated. In this manner for each animal, in each session, 27 blood and transdermal samples and 16 saliva samples were collected.

[2] = Salivary cortisol during familiarization period; assay type: in vivo; settings: sheep
Procedure: Twenty sheep (Romney cross ewes, 36-44 kg live weights) were farmed together as a flock for 14 days prior to experimentation. On each of these days, they were rounded up, penned, a patch on their backs (approximately 5 cm in diameter) shaved and SLS-UG or SLS-EG applied.
Two minutes later the electrosonophoresis device was placed briefly on this patch (not turned on). At the end of 1 h of penning saliva was collected using a plastic suction bulb positioned manually into the mouth of the sheep. In this manner the sheep were familiarized to the experimental procedure.

[3] = Patients recovering in intensive care: blood versus ultrasound (US) levels; assay type: in vivo, human; settings: one value per sample
[4] = Serum, transdermal and saliva samples from human subjects before, during and after exercise; settings: for Saliva: 30-min saliva lag
Procedure: as §1, §2
Ten human volunteers (males aged 19-23, body weights 85-103 kg) were seated at 09:30 h. During the experiment, they were held at a room temperature of 20-22° C. An initial 1 min burst of ultrasound, as for the sheep (above), was made on the volar surface of the forearm, following application of SLS-EG mix. Ten minutes later, transdermal (electrosonophoresis) collection began from this site on this forearm, simultaneous to a venepuncture blood collection being made from the other. A saliva collection was then made, followed by a second, third and fourth saliva collection 20, 30 and 40 min after the blood sample. These measurements were repeated three times over 3 h (i.e. a total of three blood and transdermal samples and 12 saliva samples). In between each sampling series, subjects were allowed to walk around, eat lightly and drink water. Following this collection, the five volunteers exercised at moderate intensities, for 40 min (heart rates maintained in the range of 130-160 bpm) on a rowing machine, stopping briefly at 10, 20 and 30 min to give blood, transdermal and saliva samples. The subjects gave another set of samples at 40 min upon completion of rowing, then warmed down lightly with stretching exercises for a further 10 min and gave a further saliva sample at the end of this time. Two more saliva samples were collected at 60 and 70 min after exercise started. At the end of this time, sampling was repeated as above, prior to exercise, for a further 3 h. The entire procedure was repeated twice a week for 3 weeks (a total of six times). The distance rowed (m) represented the total work rate during the exercise.

[5] = Concentrations in transdermal exudate collected by different formats from sheep, versus serum
Procedure: as §1
Ten of these animals were used to develop the transdermal exudate collection technique. These 10 animals were penned as above, and a catheter inserted into the jugular vein using known techniques in the art. A mixture of sodium lauryl sulfate and either SLS-UG or SLS-EG was positioned onto the shaved area on the back of each animal. […] At the end of the hour, the remaining mix on the back was collected. The entire procedure was repeated three times. This mix was subject to assay (see below) for hormones and glucose content.
On the following day, one of the two gel mixes were rubbed on and, after 10 min, ultrasound (20 kHz, 10 W/cm^2, pulsed 5 s on/5 s off using an ITO Physiotherapy and rehabilitation unit, Tokyo 176-8605, Japan) applied for 1 min directly onto the mix. Ten minutes later, the mix was again collected and measured. This was then repeated with 2 min of the ultrasound application, and on a following day, the entire procedure repeated using the alternative gel mix on the shaved patch on the animal. Times greater than 2 min were not attempted due to potential risk of skin damage. Blood samples were collected at the time of ultrasound application and again at the time when the gel mix was also collected. The entire ultrasound procedure was then repeated on subsequent days with the addition of an application of a 9V electric field either side of the ultrasound head (in contact with skin).
On a separate day, in a further repeat of the above procedure; the collecting head (50) was positioned onto the ultrasound device. The ultrasound device was modified to ensure good coupling for use with the collecting head and delivery of needed parameters to the skin. The output of the device was reset to achieve the same energy and pulse delivery to the skin's surface as when the collecting head was not present, and the ultrasound device had been placed directly in contact with the gels (as described above). Three fluid flow rates into the collection chamber of the head were compared: 150, 300 and 600 μl/min. The effluent fluid was then assayed. On a final day, this was then repeated with the immunosensors positioned in the exit line from the chamber, with immunosensor measurement of the hormones made as has been described above.

[6] = Flow rate effect on analyte extraction (electrosonophoresis exudate versus serum); assay type: in vivo; settings: for Sonified off membrane*: membrane sonicated in water bath
Procedure: Using the methods above for transudate and serum extraction, an experiment was conducted to determine the effect of flow rates through the head on testosterone recovery. Table 5 sets out the results of the experiment.
In a series of experiments (15 measures per flow rate) flow rates were compared for collection of testosterone in exudate from electrosonophoresis compared to that concurrently measured in serum of the subjects.

[7] = Trial of FIG. 1 device: blood levels versus ultrasound-extracted transudate levels
Text: The device of shown in FIG. 1 has been trialed with four individuals. The device was assembled as set out above and was linked to a testosterone and ethanol detectors comprising a HPLC system and Electrochemical detector and a mass spectroscopy system. […] In turn, each subject placed their forearm on the device. The ultrasound generator was set to produce continuous pulsing, collimating ultrasonic energy at 1 MHz and 0.5 W/cm^2. The surface of delivery at the test site was approximately 5 cm^2. Collections were made from the skin surface of the forearm over a period of one minute. Blood samples were drawn simultaneously and analysed for comparison to the ultrasound samples.

[8] = sheep, SLS + 10% E + US 1 min + 9 V
[9] = sheep, SLS + 10% E + US 1 min + 9 V + Collection Head

C[C@]12CCC(=O)C=C1CC[C@@H]1[C@@H]2[C@@H](O)C[C@@]2(C)[C@H]1CC[C@]2(O)C(=O)CO [Cortisol, cortisol]
Serum ([1]; 10 min Exercise): 19.6 ± 5.1 ng/L | Saliva ([1]; 10 min Exercise): 1.51 ± 0.97 ng/L | Exudate ([1]; 10 min Exercise): 2.91 ± 0.83 ng/L | Serum ([1]; 20 min Exercise): 27.8 ± 4.6 ng/L | Saliva ([1]; 20 min Exercise): 2.35 ± 2.19 ng/L | Exudate ([1]; 20 min Exercise): 3.92 ± 1.01 ng/L | Serum ([1]; 30 min Exercise): 39.3 ± 7.4 ng/L | Saliva ([1]; 30 min Exercise): 2.44 ± 1.76 ng/L | Serum ([1]; Postexercise): 18.3 ± 4.9 ng/L | Saliva ([1]; Postexercise): 1.34 ± 1.81 ng/L | Exudate ([1]; Postexercise): 2.71 ± 0.55 ng/L | Serum ([1]; Preexercise): 11.9 ± 4.7 ng/L | Saliva ([1]; Preexercise): 1.07 ± 1.03 ng/L | Exudate ([1]; Preexercise): 1.71 ± 0.85 ng/L | Salivary value ([2]; Day 14): 1.1 ± 0.9 ng/mL | Salivary value ([2]; first day): 6.4 ± 1.2 ng/mL | Cortisol US [3]: 32.1 ng/mL and 37.4 ng/mL and 30.5 ng/mL and 39.7 ng/mL and 29.2 ng/mL and 36.4 ng/mL and 31.3 ng/mL and 45.9 ng/mL | Serum ([4]; 0 min Exercise): 29.5 ± 9.2 ng/L | Saliva ([4]; 0 min Exercise): 2.79 ± 1.13 ng/L | Serum ([4]; 10 min Exercise): 7.08 ± 11.5 ng/L | Saliva ([4]; 10 min Exercise): 8.01 ± 2.86 ng/L | Serum ([4]; 20 min Exercise): 91.3 ± 19.7 ng/L | Saliva ([4]; 20 min Exercise): 8.75 ± 4.31 ng/L | Serum ([4]; 30 min Exercise): 115.7 ± 15.8 ng/L | Saliva ([4]; 30 min Exercise): 10.04 ± 3.11 ng/L | Serum ([4]; 40 min Exercise): 109.4 ± 13.1 ng/L | Saliva ([4]; 40 min Exercise): 9.19 ± 3.76 ng/L | Serum ([4]; Postexercise): 49.6 ± 11.3 ng/L | Saliva ([4]; Postexercise): 4.02 ± 1.95 ng/L | Serum ([4]; Preexercise): 22.7 ± 8.1 ng/L | Saliva ([4]; Preexercise): 2.25 ± 1.04 ng/L | Recovery as % of serum levels ([5]; in vivo): 5%

C[C@]12CC[C@H]3[C@@H](CCC4=CC(=O)CC[C@@]43C)[C@@H]1CC[C@@H]2O [Testosterone, testosterone]
Serum ([5]; sheep, SLS + 10% E): 0.9 ± 0.4 ng/mL | Exudate ([5]; sheep, SLS + 10% E + US 1 min): 0.02 ± 0.005 ng/mL | Relative recovery (exudate vs serum) ([5]; sheep, SLS + 10% E + US 1 min): (2%) | Serum ([5]; sheep, SLS + 10% E + US 1 min): 0.9 ± 0.3 ng/mL | Exudate [5, 8]: 0.05 ± 0.02 ng/mL | Relative recovery (exudate vs serum) [5, 8]: (7%) | Serum [5, 8]: 0.7 ± 0.6 ng/mL | Exudate [5, 9]: 0.11 ± 0.06 ng/mL | Relative recovery (exudate vs serum) [5, 9]: (14%) | Serum [5, 9]: 0.8 ± 0.6 ng/mL | Serum ([5]; sheep, SLS + UG): 1.1 ± 0.6 ng/mL | Recovery as % of serum levels ([5]; sheep, gel mix with addition of ultrasound application): 2% | Collected in exudate ([6]; flow rate 50 μl/min): 0.05 to 0.09 ng/mL | Serum level at same time ([6]; flow rate 50 μl/min): 1.9 to 2.5 ng/mL | Sonified off membrane* ([6]; flow rate 50 μl/min): 0.1 to 0.2 ng/mL | Collected in exudate ([6]; flow rate 100 μl/min): 0.15 to 0.20 ng/mL | Serum level at same time ([6]; flow rate 100 μl/min): 2.0 to 2.4 ng/mL | Sonified off membrane* ([6]; flow rate 100 μl/min): 0.05 to 0.07 ng/mL | Collected in exudate ([6]; flow rate 150 μl/min): 0.2 to 0.3 ng/mL | Serum level at same time ([6]; flow rate 150 μl/min): 1.9 to 2.6 ng/mL | Sonified off membrane* ([6]; flow rate 150 μl/min): 0.01 to 0.02 ng/mL | Collected in exudate ([6]; flow rate 200 μl/min): 0.21 to 0.30 ng/mL | Serum level at same time ([6]; flow rate 200 μl/min): 2.0 to 3.01 ng/mL | Sonified off membrane* ([6]; flow rate 200 μl/min): 0.01 to 0.02 ng/mL | Collected in exudate ([6]; flow rate 300 μl/min): 0.12 to 0.17 ng/mL | Serum level at same time ([6]; flow rate 300 μl/min): 1.9 to 2.8 ng/mL | Sonified off membrane* ([6]; flow rate 300 μl/min): 0.08 to 0.12 ng/mL | Blood level 1# ([7]; day 1, 30 min following 1 hour training (aerobic) and oral 10% ethanol, one value per subject (1-4)): 3 ng/mL and 7 ng/mL and 9 ng/mL and 4 ng/mL | Ultrasound level 1# ([7]; day 1, 30 min following 1 hour training and oral 10% ethanol, forearm, 1 MHz, 0.5 W/cm^2, 1 min, one value per subject): 2 ng/ml (2×) and 4 ng/ml and 7 ng/ml | Ultrasound level 2* ([7]; repeat on day 3, forearm, 1 MHz, 0.5 W/cm^2, 1 min, one value per subject): 4 ng/ml (2×) and 6 ng/ml and 3 ng/ml | Blood level 2* ([7]; repeat on day 3, one value per subject): 5 ng/mL and 10 ng/mL and 8 ng/mL and 6 ng/mL
